Test results from patent US8562974B2, “Method for expanding Cd4+ Cd25+ T regulator cells” (Fondazione Telethon, priority 2005, dated 2013).

Assays:
[1] = tested on: CD4^+ T cells; test: In vitro treatment of CD4+ T cells with rapamycin: CD4+CD25+ Tr cell content; type: cell-based; conditions: in vitro treatment of CD4+ T cells (5-10% Tr cells at start)
[2] = tested on: DO11.10 tg CD4^+ T cells; test: Activation induced cell death (AICD) by annexin V binding, FACS; type: cell-based, mice; conditions: APC+OVA, 100 nM rapamycin, 24 and 72 hours, vs control cells
Procedure: (§1) 1×10^6 CD4^+ T cells isolated from spleen of DO11.10 tg mice were stimulated with 4×10^6 APC from Balb/c mice (i.e. total splenocytes irradiated 3000 Rad) and 0.6 μM OVA323-339peptide (OVA) (Primm, Milano, Italy). Three rounds of stimulation of 7 days each were performed. IL-2 (BD Biosciences) was added starting from the second round of stimulation at 50 U/ml. Alternatively, 1×10^6 CD4^+ T cells isolated from spleen of Balb/c mice were stimulated with coated 10 μg/ml of αCD3 and soluble 1 μg/ml of αCD28 mAbs (BD Biosciences). Cells were cultured in the presence of medium alone or 100 nM rapamycin (Sigma, St Louis, Mo.). Three rounds of stimulation of 7 days each were performed. IL-2 (BD Biosciences) was added starting from the second round of stimulation at 50 U/ml. In separate experiments, sorted CD4^+CD25^+ T cells isolated from spleen of Balb/c mice were stimulated with coated 10 μg/ml of αCD3, soluble 1 μg/ml of αCD28 mAbs (BD Biosciences) and 1000 U/ml of IL-2. Cells were cultured in the presence of medium alone or 100 nM rapamycin (Sigma, St Louis, Mo.). 1000 U/ml of IL-2 was added at the beginning of each new stimulation.
In more detail, DO11.10 tg CD4^+ T cells were cultured with APC+OVA (medium) or APC+OVA+rapamycin (rapamycin) and AICD was monitored by FACs after 24 and 72 hours of culture. Percentage of PI^+-annexinV^+ cells is indicated in each dot plot.

[3] = tested on: Balb/c CD4^+CD25^+ T cells; test: Culture of sorted CD4+CD25+ T cells with αCD3+αCD28+1000 U/ml IL-2: fold expansion and CD25bright content; type: cell-based, mice
Procedure: (§2) Cells were stained with the indicated Abs (all from BD Biosciences, Mountain View, Calif.), and were analyzed with a FACScan flow cytometer equipped with CellQuest software (BD Biosciences). To obtain highly purified CD4^+CD25^+/− T cells, CD4^+ T cells were first purified from splenocytes isolated from Balb/c mice by positive selection with αCD4 mAb-coated microbeads (Miltenyi Biotec, Bergisch Gladbach, Germany). Thereafter, CD4^+ T cells were stained with Cy-coupled αCD4 and PE-coupled αCD25 mAbs (BD Biosciences) and CD4^+CD25^+ T cells were sorted by FACS-sorting on a FAC-Star (BD Biosciences).
as §1, with “stimulation. […]” for “stimulation.”
Fold expansion of Balb/c CD4^+CD25^+ T cells 1, 2, and 3 weeks after culture in the presence of αCD3+αCD28+1000 U/ml IL-2 (medium, white bars) or αCD3+αCD28+1000 U/ml IL-2+rapamycin (rapamycin, dotted bars) was evaluated by direct cell counts. […] After seven days, cells were analyzed by FACS. […]

[4] = tested on: CD4^+CD25^− and CD4^+CD25^+ T cells; test: Proliferation of sorted CD4+CD25- and CD4+CD25+ T cells with anti-CD3+anti-CD28+IL-2, CFSE; type: cell-based, human; conditions: 100 nM rapamycin, 7 days
Procedure: CD4^+CD25^− and CD4^+CD25^bright T cells were FACS sorted. Subsequently, sorted CD4^+CD25^− T cells were stained with CSFE and sorted CD4^+CD25^+ T cells were added back to the same amount present in unsorted CD4^+ T cells (5%) (FIG. 13, left panel). Alternatively, sorted CD4^+CD25^+ T cells were stained with CSFE and sorted CD4^+CD25^− T cells were added back to the same amount present in unsorted CD4^+ T cells (95%) (right panel of FIG. 13). The two distinct CFSE stained cell populations were activated with anti-CD3+anti-CD28 mAbs+IL-2 in the presence or absence of 100 nM rapamycin. CFSE dilution was monitored 7 days after activation. Numbers indicate the percentage of CFSE^+ dividing cells.

[5] = tested on: DO11.10 tg CD4^+ T cells; test: Cell size by FACS (FSC vs SSC) after 3 rounds of stimulation; type: cell-based, mice; conditions: 3 weeks activation with rapamycin, one week rest with IL-2 50 U/ml
Procedure: After 3 rounds of stimulation with APC+OVA (medium) or APC+OVA+rapamycin (rapamycin), DO11.10 tg CD4^+ T cells were left resting for one additional week with no further stimulation in the presence of IL-2 (50 U/ml). At the end of the seven days cell size was analyzed by FACS by plotting FSC vs SSC parameters. Small (continuous line) and big (dotted line) cells are circled. Naïve CD4^+ T cells from a DO11.10 tg mouse were used as control.

[6] = tested on: DO11.10 tg CD4^+ T cells; test: Re-stimulation without compound after 3 rounds, CFSE dilution (anergy); type: cell-based, mice; conditions: after 3 rounds with rapamycin, re-stimulated with APC+OVA without rapamycin and IL-2, 5 days
Procedure: The proportion of CFSE^+ cells proliferating in vitro was calculated as described elsewhere (Lyons 1994). Briefly, the number of cells (events) in a given cycle (division: n) was divided by 2 raised to power n, to calculate the percentage of original precursor cells from which they arose. The sum of original precursors from division 1 to 6 represents the number of precursors cells which proliferated. The percent of CFSE^+ divided cells was calculated by [(# of precursors that proliferated1-6/# of total precursors0-6)×100].
In more detail in relation to FIG. 1C, after 3 rounds of stimulation with APC+OVA (medium) or APC+OVA+rapamycin (rapamycin), DO11.10 tg CD4^+T cells were stained with CFSE and re-stimulated with APC+OVA in the absence of the compound and of exogenous IL-2. CFSE dilution was monitored 5 days after activation.

[7] = tested on: CD4^+ T cells isolated from PBMCs; test: TCR-mediated proliferation and anergy of human CD4+ T cells, CFSE; type: cell-based
Procedure: CD4^+ T cells isolated from PBMCs of healthy subjects or T1D patients were activated with plate bound anti-CD3 (10 μg/ml) and soluble of anti-CD28 (1 μg/ml) mAbs (BD Biosciences). Cells were cultured in the presence of medium (x-vivo 10) alone or with 100 nM rapamycin (Sigma, St Louis, Mo.). Three round of stimulations of 7 days each were performed. IL-2 (BD Biosciences) was added starting from the second round of stimulation at 100 U/ml.
CD4^+ T cells were stained with CFSE either at the beginning of the culture (1st week), or at the end of one (2nd week), or three (4th week) round of stimulations. CFSE^+ CD4^+ T cells were activated in vitro in the presence of anti-CD3+anti-CD28 mAbs in the presence or absence of 100 nM rapamycin. CFSE dilution was monitored 7 days after activation.
After 3 round of stimulations with anti-CD3+anti-CD28 mAbs (T medium) or anti-CD3+anti-CD28 mAbs+rapamycin (T rapamycin), CD4^+ T cells were stained with CFSE and re-stimulated with anti-CD3+anti-CD28 mAbs in the absence of the compound and of exogenous IL-2. CFSE dilution was monitored 7 days after activation. Numbers indicate the percentage of dividing cells.

[8] = tested on: DO11.10 tg CD4^+ T cells; test: CD4+CD25bright T cell content after 3 rounds of stimulation, FACS; type: cell-based, mice
Procedure: as §2
as §1, with “Cells were cultured in the presence of medium alone or 100 nM rapamycin (Sigma, St Louis, Mo.). 1000 U/ml of IL-2 was added at the beginning of each new stimulation.” left out
After 3 rounds of stimulation with APC+OVA (medium) or APC+OVA+rapamycin (rapamycin), DO11.10 tg CD4^+ T cells were left resting for one week with no further stimulation in the presence of IL-2 (50 U/ml). After seven days cells were analyzed by FACS. […]
1×10^6 DO11.10 tg CD4^+ T cells (containing 70.000 CD4^+CD25^bright T cells) were cultured with APC+OVA (medium, white bar) or APC+OVA+rapamycin (dotted bar, rapamycin). After 3 rounds of stimulation, the total number of CD4^+CD25^brightT cells was determined by FACS.

[9] = tested on: DO11.10 tg CD4^+ T cells; test: Fold expansion of T cells over three rounds of APC+OVA stimulation, direct cell counts; type: cell-based, mice
Procedure: as §1
Fold expansion of T cells was determined after each round of stimulation. […] Rapamycin binds to FKBP12 and the formed complex inhibits the function of mTOR, which is involved in a broad range of physiological processes linked to the control of cell-cycle. […]

[10] = tested on: NOD CD4^+ T cells; test: Ex vivo expansion of NOD CD4+ T cells with rapamycin: regulatory markers; type: cell-based; conditions: pre-diabetic 11 week old NOD mice, three rounds of stimulation
Procedure: CD4^+ T cells were obtained by incubation of splenocytes from pre-diabetic or diabetic NOD mice with αCD4 mAb-coated microbeads and applied onto MiniMacs columns (Miltenyi Biotec). The average purity was 95%. 1×10^6 CD4^+ T cells isolated from spleen of NOD mice were stimulated with coated 10 μg/ml of αCD3 and soluble 1 μg/ml of αCD28 mAbs (BD Biosciences). Cells were cultured in the presence of medium alone or 100 nM rapamycin (Sigma, St Louis, Mo.). Three rounds of stimulation of 7 days each were performed. IL-2 (BD Biosciences) was added starting from the second round of stimulation at 100 U/ml.
In this Example, we attempted to generate ex vivo Tr cells from non obese diabetic (NOD) mice. Spontaneously autoimmune diabetes in NOD mice mainly results from quantitative and qualitative changes in autoaggressive T effector cells. Older mice indeed harbor diabetogenic T cells that are progressively less prone to Tr cells-mediated inhibition (You et al. Diabetes, 2005). We tested whether rapamycin could expand functional Tr cells from NOD mice and whether these expanded T cells have a regulatory function. CD4^+ T cells were isolated from the spleen of pre-diabetic 11 week old NOD mice and were activated in vitro with anti-CD3 and CD28 mAbs in the presence of medium or rapamycin.

[11] = tested on: FOXP3 mRNA; test: FOXP3 quantitative PCR; conditions: CD4+ T cells exposed to rapamycin
From the text: Total RNA was extracted with Eurozol (Euroclone, Switzerland), and cDNA was synthesized with High Capacity cDNA Archive Kit (Applied Biosystems, New Jersey, USA). Levels of FOXP3 mRNA was quantified using Assay on Demand real-time PCR kits (Applied Biosystems, New Jersey, USA) with TaqMan Universal PCR Master Mix (Applied Biosystems, New Jersey, USA). Levels of 18s rRNA was quantified as internal control by using TaqMan PDAR Eukaryotic 18s Endogenus Controls (Applied Biosystems, assay ID: Mm00475156m1). Samples were run in duplicate, and relative expression of FOXP3 was determined by normalizing to 18 s expression in each set of samples in order to calculate a fold-change in value.
To address this question, CD4^+ T cells depleted of the CD25^+ Tr cells were cultured for three weeks in the presence or absence of rapamycin. […] The cultured cells were added in equal number to naïve KJ1-26^+CFSE^+ cells (10^5:10^5) and proliferation was monitored by CFSE dilution. […] Relative levels of mRNA FOXP3 were determined by real time quantitative RT-PCR in CD4^+ (left panel) or CD4^+CD25^− (right panel) T cells repetitively activated in vitro with or without rapamycin. The amounts of FOXP3 mRNA are expressed as relative to that in splenocytes depleted of CD4^+CD25^+ T cells (which was given an arbitrary value of 1). […]

CO[C@H]1C[C@@H]2CC[C@@H](C)[C@@](O)(O2)C(=O)C(=O)N2CCCC[C@H]2C(=O)O[C@H]([C@H](C)C[C@@H]2CC[C@@H](O)[C@H](OC)C2)CC(=O)[C@H](C)/C=C(\C)[C@@H](O)[C@@H](OC)C(=O)[C@H](C)C[C@H](C)/C=C/C=C/C=C/1C [rapamycin]
increase of the CD4+CD25+ Tr cell content [1]: 20 fold
apoptosis (AICD) upon in vitro activation [2]: neither increase nor reduction of apoptosis was observed
kinetic of proliferation (fold expansion) ([3]; 100 nM rapamycin): delayed kinetic of proliferation compared to control cells
expansion ([3]; starting from the third week of culture): greatly expanded
percentage of CD4+CD25bright T cells ([3]; three weeks, vs control cells): higher percentage of
TCR-mediated proliferation of CD4+CD25- vs CD4+CD25+ T cells [4]: Selectively Blocks TCR-Mediated Proliferation of CD4^+CD25^− T Cells but not of CD4^+CD25^+ Tr Cells
cell size and shape [5]: smaller and displayed a more round-like shape than control cells
ability to proliferate on re-stimulation [6]: retained their ability to proliferate
T cell anergy ([7]; after 3 rounds, re-stimulated without compound and IL-2): Does Not Induce T Cell Anergy
TCR-mediated proliferation of CD4+ T cells ([7]; anti-CD3+anti-CD28, 100 nM rapamycin): Strongly Reduces TCR-Mediated Proliferation
enrichment in CD4+CD25bright T cells ([8]; T cells activated in the presence of rapamycin): highly enriched in
content of CD4+CD25bright Tr cells ([8]; cells exposed to rapamycin, 3 rounds APC+OVA): around 60%
total number of CD4+CD25bright T cells recovered ([8]; three weeks of culture, repetitive Ag-stimulation): markedly superior to that of control cultures
kinetic of proliferation (fold expansion) ([9]; APC+OVA, 100 nM rapamycin, weeks 1-3): delayed kinetic of proliferation compared to control cells
number of T cells recovered ([9]; end of the third week of culture): the same number of T cells was recovered in control- and rapamycin-cultures
enrichment in CD4+CD62L+ and CD45RBlow cells [10]: highly enriched in
FOXP3 expression [11]: enhanced
